Experimental data taken from article PMC9619376 (iScience, 2022).

Experiments:
[1] = target: GFP 10M2/11M4 EBOV VP35_75-185 (EBOV VP35 oligomerization domain) (Ebola virus - Mayinga, Zaire, 1976, UniProt Q05127); experiment: biochemical; type: binding
[2] = target: EBOV VP35_75-185 (native, non GFP-tagged) (Ebola virus - Mayinga, Zaire, 1976, UniProt Q05127); type: binding
Sequence of EBOV VP35_75-185 (native, non GFP-tagged) (Q05127 75-185 limits assumed): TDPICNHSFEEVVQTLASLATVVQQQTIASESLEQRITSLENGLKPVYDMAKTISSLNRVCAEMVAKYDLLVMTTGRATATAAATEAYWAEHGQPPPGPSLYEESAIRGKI

Sequence of GFP 10M2/11M4 EBOV VP35_75-185 (EBOV VP35 oligomerization domain) (Q05127 75-185 limits assumed): as above

SMILES	IC50 [1] [µM]	Tm at 100 μM compound (70.8 at 0 μM) [2] [°C]
O=c1c(O)c(-c2cc(O)c(O)c(O)c2)oc2cc(O)cc(O)c12 [Myricetin]	64.4	73.5
Brc1c(Br)c(Br)c2[nH]nnc2c1Br [TBBT, 4,5,6,7-Tetrabromobenzotriazole]	32.5	66.9
